Patent EP0293130A2, “Dimers of parathyroid hormone antagonists” (Merck & Co., Inc., priority 1987, dated 1988)
pIC50: −log10 of the molar value.

Test system: adenylate cyclase
Conditions: adenylate cyclase assay
Source text: In the adenylate cyclase assay of Caporale, L. et al, Peptides: Structure and Function, Proc. 9th Am. Pept. Symp. p.

## ([Tyr³⁴,Cys³⁹]PTH(21-39)NH₂)₂
Dimer versus its monomeric derivative
  increase in antagonist potency over its monomeric derivative: 25 fold
read-out: IC₅₀ (antagonist potency), antagonism of PTH
  pIC50: 4.70
